Experimental data as given in patent US11053281B2, “Peptoid affinity ligands” (MIKE-ANN, LLC, priority 2016, dated 2021).
pKd: −log10 of the molar value. Like-named read-outs stand apart in the source and are kept apart here. *1 amine or outer side, *2 acyl side, *3 side chain or, on linkers, in order; H or OH if unused. Where a SMILES comes first, the peptide text is derived from it. [ ]: non-standard residue; d: D form. Gly(N(CH2)2(3-indolyl)) = O=C(O)CNCCc1c[nH]c2ccccc12; Gly(N-(CH2)3-guanidino) = N=C(N)NCCCNCC(=O)O; NGly(CH2(3-pyridyl)) = O=C(O)CNCc1cccnc1; N(CH2CH2COOH)Gly = O=C(O)CCNCC(=O)O; Cysteamide = C(CS[*:3])N[*:1]; Nphe = O=C(O)CNCc1ccccc1; NPrGly = CCCNCC(=O)O; Nme = COCCNCC(=O)O; Sar = CNCC(=O)O

System: polyclonal human IgG
Test: Adsorption isotherm of peptoid affinity resins against polyclonal human IgG
Type: binding
Parameters: Qmax: unit not given here
Details: for Qmax: maximum capacity (qmax) of resin from isotherm fit; for pKd: peptoid ligand conjugated to chromatographic resin, IgG in PBS, hyperbola fit of isotherm, Kd given in molar, read-out: Kd x 10^−6
Experimental: The affinity for the peptoid-resin combinations was determined by measuring the adsorption isotherm of each resin against polyclonal human IgG (Pakimna et al., J Applied Sci., 12(11): 1136-1141, 2012). Briefly, 0.050 mL of 50% resin slurry was pipetted into 6 individual wells of a 96-well filter plate (0.45 micron, PVDF, Harvard Apparatus). The resin was washed with 2×250 μL PBS using a vacuum manifold. To an individual well, 0.25 mL of a human polyclonal IgG solution at different concentrations (10, 5, 2.5, 1.25, 0.625, and 0.3125 mg/mL) was added. The resin/IgG suspension was agitated gently on a rocking table for 30 minutes. The fluid was then collected via vacuum, and the resin was washed with 0.25 mL of PBS. The filtrate and wash were then analyzed by the BCA assay to determine the residual IgG concentration relative to the starting concentration of the solution.
The equilibrium concentrations were then used to determine the capacity of the resin at each IgG concentration using the following formula: q=Volumesample×(Initial Concentration−Equilibrium Concentration)/Volumeresin
A plot of q versus equilibrium concentration was generated and the data fit with a hyperbola to determine the affinity constant (Kd) and the maximum capacity (qmax) according to the below formula, where C=the equilibrium concentration of antibody in solution: q=qmax×C/(kd+C) Typical adsorption isotherm is shown in FIG. 2. Tabulated Kd and qmax data is found in Table 2.

Row | pKd (Table 3) | pKd (Table 2) | SMILES | Qmax (Table 3) | Qmax (Table 2)
1 | 5.25 | – | CCCN(CC(=O)N(CCc1c[nH]c2ccccc12)CC(=O)NCCS)C(=O)CN(CCc1c[nH]c2ccccc12)C(=O)CN(C)C(=O)CN(CCCNC(=N)N)C(=O)CN(CCc1c[nH]c2ccccc12)C(=O)CNCCC(=O)O [Ligand 18-28-7] (H-[N(CH2CH2COOH)Gly][Gly(N(CH2)2(3-indolyl))][Gly(N-(CH2)3-guanidino)][Sar][Gly(N(CH2)2(3-indolyl))][NPrGly][Gly(N(CH2)2(3-indolyl))]-Cysteamide) | 42 | –
2 | – | 5.00 | CN(CC(=O)NCCS)C(=O)CN(CCC(=O)O)C(=O)CN(Cc1cccnc1)C(=O)CN(CCCNC(=N)N)C(=O)CN(CCC(=O)O)C(=O)CN(CCc1c[nH]c2ccccc12)C(=O)CNCc1cccnc1 [Ligand 18-28-9] (H-[NGly(CH2(3-pyridyl))][Gly(N(CH2)2(3-indolyl))][N(CH2CH2COOH)Gly][Gly(N-(CH2)3-guanidino)][NGly(CH2(3-pyridyl))][N(CH2CH2COOH)Gly][Sar]-Cysteamide) | – | 41
3 | – | 4.80 | COCCN(CC(=O)N(CC(=O)N(CCCNC(=N)N)CC(=O)N(CC(=O)N(CCC(=O)O)CC(=O)N(C)CC(=O)NCCS)Cc1cccnc1)Cc1ccccc1)C(=O)CNCc1cccnc1 [Ligand 18-28-12] (H-[NGly(CH2(3-pyridyl))][Nme][Nphe][Gly(N-(CH2)3-guanidino)][NGly(CH2(3-pyridyl))][N(CH2CH2COOH)Gly][Sar]-Cysteamide) | – | 41
